From ChEMBL document CHEMBL1201862, “PubChem BioAssay data set” (2004)
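Tested at 5 concentrations; 48 h exposure; 96-well plates; endpoints linearly interpolated, else capped at highest concentration. GI50: concentration for 50% inhibition of growth.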 Activity calls are given as the source filed them. Cut-off read from the data, not from the text of the source: active = GI50 up to about 1.1 µM and inactive = higher.

Experiments:
Test in all cases: NCI anticancer screen, dose series, 48 h
786-0 = test system: 786-0
BT-549 = test system: BT-549
CAKI-1 = test system: CAKI-1
CCRF-CEM = test system: CCRF-CEM
COLO 205 = test system: COLO 205
DU-145 = test system: DU-145
HL-60 = test system: HL-60
HOP-62 = test system: HOP-62
HT-29 = test system: HT-29
Hs-578T = test system: Hs-578T
M14 = test system: M14
MDA-MB-231 = test system: MDA-MB-231
Malme-3M = test system: Malme-3M
NCI-H460 = test system: NCI-H460
OVCAR-5 = test system: OVCAR-5
OVCAR-8 = test system: OVCAR-8
SF-295 = test system: SF-295
SK-MEL-2 = test system: SK-MEL-2
SW-620 = test system: SW-620
UO-31 = test system: UO-31

## O=C1C(CO)=C(CO)C(=O)c2c(O)ccc(O)c21
786-0
  GI50: 0.361 µM (active)
BT-549
  GI50: 0.204 µM (active)
CAKI-1
  GI50: 0.387 µM (active)
CCRF-CEM
  GI50: 0.0575 µM (active)
COLO 205
  GI50: 0.0408 µM (active)
DU-145
  GI50: 1.85 µM (inactive)
HL-60
  GI50: 0.043 µM (active)
HOP-62
  GI50: 1.04 µM (active)
HT-29
  GI50: 0.105 µM (active)
Hs-578T
  GI50: 1.45 µM (inactive)
M14
  GI50: 0.143 µM (active)
MDA-MB-231
  GI50: 1.35 µM (inactive)
Malme-3M
  GI50: 0.217 µM (active)
NCI-H460
  GI50: 0.923 µM (active)
OVCAR-5
  GI50: 2.08 µM (inactive)
OVCAR-8
  GI50: 0.942 µM (active)
SF-295
  GI50: 1.69 µM (inactive)
SK-MEL-2
  GI50: 1.05 µM (active)
SW-620
  GI50: 0.082 µM (active)
UO-31
  GI50: 1 µM (active)

## NC(=O)C(=CNC(N)=S)C(N)=O
786-0
  GI50: > 100 µM (inactive)
BT-549
  GI50: > 100 µM (inactive)
CAKI-1
  GI50: > 100 µM (inactive)
CCRF-CEM
  GI50: > 100 µM (inactive)
COLO 205
  GI50: > 100 µM (inactive)
DU-145
  GI50: > 100 µM (inactive)
HL-60
  GI50: > 100 µM (inactive)
HOP-62
  GI50: > 100 µM (inactive)
HT-29
  GI50: > 100 µM (inactive)
Hs-578T
  GI50: > 100 µM (inactive)
M14
  GI50: > 100 µM (inactive)
MDA-MB-231
  GI50: > 100 µM (inactive)
Malme-3M
  GI50: > 100 µM (inactive)
NCI-H460
  GI50: > 100 µM (inactive)
OVCAR-5
  GI50: > 100 µM (inactive)
OVCAR-8
  GI50: > 100 µM (inactive)
SF-295
  GI50: > 100 µM (inactive)
SK-MEL-2
  GI50: > 100 µM (inactive)
SW-620
  GI50: > 100 µM (inactive)
UO-31
  GI50: 60 µM (inactive)

## COc1ccc(/C=N/c2c(O)ccc3ccccc23)cc1OC
786-0
  GI50: > 100 µM (inactive)
BT-549
  GI50: 89.3 µM (inactive)
CAKI-1
  GI50: 63.2 µM (inactive)
CCRF-CEM
  GI50: > 100 µM (inactive)
COLO 205
  GI50: 33 µM (inactive)
DU-145
  GI50: > 100 µM (inactive)
HL-60
  GI50: 22.1 µM (inactive)
HOP-62
  GI50: 92 µM (inactive)
HT-29
  GI50: 98.9 µM (inactive)
Hs-578T
  GI50: 4.36 µM (inactive)
M14
  GI50: 74.5 µM (inactive)
MDA-MB-231
  GI50: 63.7 µM (inactive)
Malme-3M
  GI50: 14.5 µM (inactive)
NCI-H460
  GI50: 80.9 µM (inactive)
OVCAR-5
  GI50: > 100 µM (inactive)
OVCAR-8
  GI50: > 100 µM (inactive)
SF-295
  GI50: 63.7 µM (inactive)
SK-MEL-2
  GI50: > 100 µM (inactive)
SW-620
  GI50: > 100 µM (inactive)
UO-31
  GI50: > 100 µM (inactive)

## O=c1c2nc3ccccc3c(=O)n2ncn1-c1ccccc1Cl
786-0
  GI50: > 100 µM (inactive)
BT-549
  GI50: > 100 µM (inactive)
CAKI-1
  GI50: > 100 µM (inactive)
CCRF-CEM
  GI50: > 100 µM (inactive)
COLO 205
  GI50: > 100 µM (inactive)
DU-145
  GI50: > 100 µM (inactive)
HL-60
  GI50: > 100 µM (inactive)
HOP-62
  GI50: > 100 µM (inactive)
HT-29
  GI50: > 100 µM (inactive)
Hs-578T
  GI50: > 100 µM (inactive)
M14
  GI50: > 100 µM (inactive)
MDA-MB-231
  GI50: > 100 µM (inactive)
Malme-3M
  GI50: > 100 µM (inactive)
NCI-H460
  GI50: > 100 µM (inactive)
OVCAR-5
  GI50: > 100 µM (inactive)
OVCAR-8
  GI50: > 100 µM (inactive)
SF-295
  GI50: > 100 µM (inactive)
SK-MEL-2
  GI50: > 100 µM (inactive)
SW-620
  GI50: > 100 µM (inactive)
UO-31
  GI50: > 100 µM (inactive)

## CN(C)c1ccc(/C=C2\C[N+](C)(C)C/C(=C\c3ccc(N(C)C)cc3)C2=O)cc1
786-0
  GI50: 30.7 µM (inactive)
BT-549
  GI50: 10.5 µM (inactive)
CAKI-1
  GI50: > 100 µM (inactive)
CCRF-CEM
  GI50: 9.53 µM (inactive)
COLO 205
  GI50: 2.61 µM (inactive)
DU-145
  GI50: 31.3 µM (inactive)
HL-60
  GI50: 2.47 µM (inactive)
HOP-62
  GI50: 42.8 µM (inactive)
HT-29
  GI50: 9.18 µM (inactive)
Hs-578T
  GI50: 50 µM (inactive)
M14
  GI50: 20.3 µM (inactive)
MDA-MB-231
  GI50: 17.9 µM (inactive)
Malme-3M
  GI50: 22.1 µM (inactive)
NCI-H460
  GI50: 13.6 µM (inactive)
OVCAR-5
  GI50: 38.9 µM (inactive)
OVCAR-8
  GI50: 23.9 µM (inactive)
SF-295
  GI50: 31.6 µM (inactive)
SK-MEL-2
  GI50: 14.9 µM (inactive)
SW-620
  GI50: 15.3 µM (inactive)
UO-31
  GI50: > 100 µM (inactive)

## CCOC(=O)CCc1c(C)nc2c(C)c3c([nH]c4ccc(Cl)cc43)c(C)c2c1O
786-0
  GI50: 6.37 µM (inactive)
BT-549
  GI50: 10.1 µM (inactive)
CAKI-1
  GI50: 18.2 µM (inactive)
CCRF-CEM
  GI50: 7.91 µM (inactive)
COLO 205
  GI50: 10.4 µM (inactive)
DU-145
  GI50: 25.5 µM (inactive)
HL-60
  GI50: 4.94 µM (inactive)
HOP-62
  GI50: 12.3 µM (inactive)
HT-29
  GI50: 4.75 µM (inactive)
Hs-578T
  GI50: 17.6 µM (inactive)
M14
  GI50: 4.94 µM (inactive)
MDA-MB-231
  GI50: 12.6 µM (inactive)
Malme-3M
  GI50: 11.3 µM (inactive)
NCI-H460
  GI50: 2.15 µM (inactive)
OVCAR-5
  GI50: 0.843 µM (active)
OVCAR-8
  GI50: 23.5 µM (inactive)
SF-295
  GI50: 5.55 µM (inactive)
SK-MEL-2
  GI50: 1.45 µM (inactive)
SW-620
  GI50: 22.4 µM (inactive)
UO-31
  GI50: 16.1 µM (inactive)

## CC1=NN(c2nc(N)nc(-c3cc4ccccc4oc3=N)n2)C(C)(C)C1
786-0
  GI50: 15.3 µM (inactive)
BT-549
  GI50: 26.7 µM (inactive)
CAKI-1
  GI50: 17.3 µM (inactive)
CCRF-CEM
  GI50: 20.7 µM (inactive)
COLO 205
  GI50: 17 µM (inactive)
DU-145
  GI50: 20.9 µM (inactive)
HL-60
  GI50: 18.2 µM (inactive)
HOP-62
  GI50: 21.4 µM (inactive)
HT-29
  GI50: 19.7 µM (inactive)
Hs-578T
  GI50: 20.5 µM (inactive)
M14
  GI50: 20.6 µM (inactive)
MDA-MB-231
  GI50: 20.1 µM (inactive)
Malme-3M
  GI50: 17.5 µM (inactive)
NCI-H460
  GI50: 17.3 µM (inactive)
OVCAR-5
  GI50: 24.9 µM (inactive)
OVCAR-8
  GI50: 26.1 µM (inactive)
SF-295
  GI50: 18.2 µM (inactive)
SK-MEL-2
  GI50: 20 µM (inactive)
UO-31
  GI50: 19.1 µM (inactive)

## O=C1OC2C=CCC1C2 (centres undefined)
786-0
  GI50: > 100 µM (inactive)
BT-549
  GI50: > 100 µM (inactive)
CAKI-1
  GI50: > 100 µM (inactive)
CCRF-CEM
  GI50: > 100 µM (inactive)
COLO 205
  GI50: > 100 µM (inactive)
DU-145
  GI50: > 100 µM (inactive)
HL-60
  GI50: > 100 µM (inactive)
HOP-62
  GI50: > 100 µM (inactive)
HT-29
  GI50: > 100 µM (inactive)
Hs-578T
  GI50: > 100 µM (inactive)
M14
  GI50: > 100 µM (inactive)
MDA-MB-231
  GI50: > 100 µM (inactive)
Malme-3M
  GI50: > 100 µM (inactive)
NCI-H460
  GI50: > 100 µM (inactive)
OVCAR-5
  GI50: > 100 µM (inactive)
OVCAR-8
  GI50: > 100 µM (inactive)
SF-295
  GI50: > 100 µM (inactive)
SK-MEL-2
  GI50: > 100 µM (inactive)
SW-620
  GI50: > 100 µM (inactive)
UO-31
  GI50: > 100 µM (inactive)

## COC(=O)C1Cc2ccc3c(c2C1=O)CCCC3 (centres undefined)
786-0
  GI50: > 100 µM (inactive)
BT-549
  GI50: > 100 µM (inactive)
CAKI-1
  GI50: > 100 µM (inactive)
CCRF-CEM
  GI50: 39.2 µM (inactive)
COLO 205
  GI50: > 100 µM (inactive)
DU-145
  GI50: > 100 µM (inactive)
HL-60
  GI50: > 100 µM (inactive)
HOP-62
  GI50: 89.7 µM (inactive)
HT-29
  GI50: > 100 µM (inactive)
Hs-578T
  GI50: > 100 µM (inactive)
M14
  GI50: > 100 µM (inactive)
MDA-MB-231
  GI50: 83 µM (inactive)
Malme-3M
  GI50: > 100 µM (inactive)
NCI-H460
  GI50: > 100 µM (inactive)
OVCAR-5
  GI50: > 100 µM (inactive)
OVCAR-8
  GI50: 92.3 µM (inactive)
SF-295
  GI50: 71.4 µM (inactive)
SK-MEL-2
  GI50: > 100 µM (inactive)
SW-620
  GI50: 86.5 µM (inactive)
UO-31
  GI50: 61.4 µM (inactive)

## O=C1CSC(c2cccc(Oc3ccccc3)c2)N1c1cc(Cl)ccc1Cl (centres undefined)
786-0
  GI50: 18.2 µM (inactive)
BT-549
  GI50: 19.1 µM (inactive)
CAKI-1
  GI50: 22.5 µM (inactive)
CCRF-CEM
  GI50: 17.2 µM (inactive)
COLO 205
  GI50: 36.7 µM (inactive)
DU-145
  GI50: 35.2 µM (inactive)
HL-60
  GI50: 27.3 µM (inactive)
HOP-62
  GI50: 21.9 µM (inactive)
HT-29
  GI50: 22.4 µM (inactive)
Hs-578T
  GI50: 29.7 µM (inactive)
M14
  GI50: 22.2 µM (inactive)
MDA-MB-231
  GI50: 20.7 µM (inactive)
Malme-3M
  GI50: 27.5 µM (inactive)
NCI-H460
  GI50: 20.1 µM (inactive)
OVCAR-5
  GI50: 27.7 µM (inactive)
OVCAR-8
  GI50: 23.7 µM (inactive)
SF-295
  GI50: 23 µM (inactive)
SK-MEL-2
  GI50: 18.7 µM (inactive)
SW-620
  GI50: 22.3 µM (inactive)
UO-31
  GI50: 23.3 µM (inactive)
